The target of the test is T1, N-terminal HiBiT tagged BCL6 (Homo sapiens, UniProt P41182).
T1 construct: expressed in transfected cells; host or cells: HT1080 (ATCC CCL-121), stably transduced with lentivirus pLV-UBC-N-HiBiT-BCL6-PGK-puro
The test is described as follows: HiBiT based degradation assay. It counts as cell-based. To be noted: HT1080 cells expressing N-terminal HiBiT tagged BCL6, 5 hours of incubation; for Ymin (5 hr): BCL6 degradation normalized with DMSO control; for DC50: four-parameter logistic model, read-out: EC50 (5 hr). An outline of the steps:
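Degradation measured by luminescence from the Nano-Glo HiBiT lytic reagent (15 min, room temperature), normalized to DMSO controls and fitted to a four-parameter curve.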

On to `CNC(=O)COc1cc2cc(Nc3nc(N4CCN(C(C)(C)C5CCN(c6ccc7c(C8CCC(=O)NC8=O)nn(C)c7c6)CC5)CC4)ncc3Cl)cnc2n(C(C)C)c1=O` (stereo not shown) [Compound 158, 2-((6-((5-chloro-2-(4-(2-(1-(3-(2,6-dioxopiperidin-3-yl)-1-methyl-1H-indazol-6-yl)piperidin-4-yl)propan-2-yl)piperazin-1-yl)pyrimidin-4-yl)amino)-1-isopropyl-2-oxo-1,2-dihydro-1,8-naphthyridin-3-yl)oxy)-N-methylacetamide], for which the “Ymin (5 hr)” value is “++ (50% ≤ Ymin < 70%)” and the DC50 was less than 10 nM.
Take `CNC(=O)COc1cc2cc(Nc3nc(N4CCC(CN5CCN(c6cccc7c(C8CCC(=O)NC8=O)nn(C)c67)C[C@H]5C)CC4)ncc3Cl)cnc2n(C(C)C)c1=O` (stereo partly drawn) [Compound 192b, 2-[[6-[[5-chloro-2-[4-[[(2R)-4-[3-(2,6-dioxo-3-piperidyl)-1-methyl-indazol-7-yl]-2-methyl-piperazin-1-yl]methyl]-1-piperidyl]pyrimidin-4-yl]amino]-1-isopropyl-2-oxo-1,8-naphthyridin-3-yl]oxy]-N-methyl-acetamide]: the “Ymin (5 hr)” value was “++++ (Ymin < 30%)” and the DC50 was in the range of 10 to 100 nM.
The like results for `CNC(=O)COc1cc2cc(Nc3nc(N4CCN(CC5CCN(c6cccc7c(C8CCC(=O)NC8=O)nn(C)c67)CC5)C(C)(C)C4)ncc3Cl)cnc2n(C(C)C)c1=O` (stereo not shown) [Compound 172, 2-[[6-[[5-chloro-2-[4-[[1-[3-(2,6-dioxo-3-piperidyl)-1-methyl-indazol-7-yl]-4-piperidyl]methyl]-3,3-dimethyl-piperazin-1-yl]pyrimidin-4-yl]amino]-1-isopropyl-2-oxo-1,8-naphthyridin-3-yl]oxy]-N-methyl-acetamide] were, in that order, “+++ (30% ≤ Ymin < 50%)” and 10 to 100 nM.
The like results for `CNC(=O)COc1cc2cc(Nc3nc(N4CCC(CC5CCN(c6ccc7c(C8CCC(=O)NC8=O)nn(C)c7c6)CC5)CC4)ncc3Cl)cnc2n(C)c1=O` (stereo not shown) [Compound 140, 2-((6-((5-chloro-2-(4-((1-(3-(2,6-dioxopiperidin-3-yl)-1-methyl-1H-indazol-6-yl)piperidin-4-yl)methyl)piperidin-1-yl)pyrimidin-4-yl)amino)-1-methyl-2-oxo-1,2-dihydro-1,8-naphthyridin-3-yl)oxy)-N-methylacetamide] were, in that order, “+++ (30% ≤ Ymin < 50%)” and less than 10 nM.
Regarding `CNC(=O)COc1cc2cc(Nc3nc(N4CCC(CN5CCN(c6cccc7c(C8CCC(=O)NC8=O)nn(C)c67)C[C@H]5CO)CC4)ncc3Cl)cnc2n(C(C)C)c1=O` (stereo partly drawn) [Compound 231a, 2-[[6-[[5-chloro-2-[4-[[(2S)-4-[3-(2,6-dioxo-3-piperidyl)-1-methyl-indazol-7-yl]-2-(hydroxymethyl)piperazin-1-yl]methyl]-1-piperidyl]pyrimidin-4-yl]amino]-1-isopropyl-2-oxo-1,8-naphthyridin-3-yl]oxy]-N-methyl-acetamide], the “Ymin (5 hr)” value was “++++ (Ymin < 30%)” and the DC50 lay in the range of 10 to 100 nM.

For the origin of these results see patent publication US20260241012A1, “1,8-NAPHTHYRIDIN-2-ONE HETEROBIFUNCTIONAL BCL6 DEGRADERS” (Treeline Biosciences, Inc., priority 2022, published 2026).
